Measurements: patent publication US8450308B2 (Vitae Pharmaceuticals, Inc., priority 2008, dated 2013)
pIC50: −log10 of the molar value.

tested on: not listed separately; experiment: BACE cell assay: soluble Amyloid Beta 1-40 (Aβ 1-40) in culture media of H4-APPsw cells; format: cell-based; details: in vitro cell activity, H4-APPsw cells, secreted Aβ 1-40, overnight treatment; read-out: IC50
Method: H4 neuroglioma cell line that stably expresses Amyloid Precursor Protein (APP) containing the KM-NL Swedish mutation (H4-APPsw) was generated. For the assay, cells are treated overnight in the presence of inhibitor and the culture media are subjected to ELISA analysis of soluble Amyloid Beta 1-40 (Aβ 1-40).
H4 neuroglioma cell line was cultured in DMEM with 10% FBS and 1% penicillin/streptomycin (Culture Medium) at 37° C., 5% CO2. […] 24 hrs after transfection, the cells were replaced into three new plates (150 mm) in fresh Culture Medium with 250 ug/ml Zeocin. […] The levels of APPsw expression were analyzed by immunoblotting and the production of Aβ 1-40 was detected by ELISA of culture supernatants. The selected clones are maintained in Culture Medium with 250 μg/ml Zeocin and routinely split in 3-4 days to maintain 20-80% confluence.
Split cells. Split H4-APPsw cells in Culture Medium and culture overnight such that cells will be ˜80% confluent next morning.
Create Compound Dilution Plate. After determining the desired final concentration of compound to be tested, create a 500× dilution plate. Add DMSO, but not inhibitor, to each well of Column 1. […] Add compounds of interest at 500× desired final concentration to wells A3-A10. Add DMSO, but not inhibitor, to each well of Columns 11 and 12. Dilute contents of Row A 1:3 in Row B. then continue through Rows C—H.
Create Media Plate. To create a 2× solution of compound in media, add 996 μL Culture Medium to each well of a 96-well 2 ml deep well plate (Media Plate) in biosafety hood. Add 4 μL 5 mM control compound to Media Plate wells A1-D1 for determination of full inhibition.
Add media to Cell Plate. With a multichannel pipettor, mix each well of Media Plate several times to insure homogeneity. Add 100 μL of mixture to Black polymer bottom P-D-L plates. Next, place Medium Plate and Cell Plate in the incubator.
Add cells to Cell Plate. Trypsinize and count H4-APPsw cells. Dilute cells 6×10^5 cells/ml in Culture Medium and remove Cell Plate from incubator. Vortex cells to homogeneity, then using a multichannel repeating pipettor, add 100 μL cell suspension to Cell Plate, adding cells from Row H to Row A. Place Cell Plate in incubator.
Change media in Cell Plate. After 5 h, check Cell Plate by microscope to insure cells are attached. In culture hood, remove media from Cell Plate using multichannel repeating pipettor. Add 100 μl Culture Medium to each well. Remove Media Plate from incubator and mix with pipettor as previous. Add 100 μl from each well of Media Plate to corresponding well in Cell Plate. Place Cell Plate in incubator overnight.
Perform ELISA to determine levels of secreted Aβ 1-40. After 16 h incubation, spin Cell Plate for 8 min at 1200 rpm. The primary reading of Aβ 1-40 levels is done using PerkinElmer AlphaLISA technology. Follow the manufacturer's protocol for performing AlphaLISA in a white ½ area Optiwell plate using Row 12 for peptide standard (1:2 dilutions, starting at 15 ng/ml). Data are acquired using PerkinElmer Fusion-Alpha FP-HT, Alpha protocol (Count Time 0.6 s, Count Time Ratio 30%:70%).
Export data from Fusion using Columnar Report format into a separate file for each plate. Upload data into Activity Base using RIA-DOSE-RESPONSE protocol (Version 1). Data from at least eight doses were fitted to a four parameter logistical model using XLfit software to determine potency.

First: CN1C(=O)C2(C[C@H](C3CCOC(C)(C)C3)Oc3ccc(-c4cc(F)cc(Cl)c4)cc32)N=C1N (some centres unmarked) [Compound 190]
Second: CN1C(=O)C2(C[C@H](C3CCOC(C)(C)C3)Oc3ccc(-c4cc(F)cc(F)c4)cc32)N=C1N (some centres unmarked) [Compound 231]
The pIC50 of the first is higher: 7.00 to 9.00 for the first, 6.30 to 7.00 for the second. The first is the more potent here.

COc1cc(Cl)cc(-c2ccc3c(c2)C2(CC(C4CCOC(C)(C)C4)O3)N=C(N)N(C)C2=O)c1 (centres unmarked) [Compound 193] and CN1C(=O)C2(CC(C3CCOC(C)(C)C3)Oc3ccc(-c4cc(Cl)cc(C#N)c4)cc32)N=C1N (centres unmarked) [Compound 183] fall in the same range of pIC50: 7.00 to 9.00 for the first, 7.00 to 9.00 for the second.

CN1OC2(CC(C3CCCc4ccccc43)Oc3ccc(-c4cc(F)cc(Cl)c4)cc32)N=C1N (centres unmarked) [Compound 240] and CN1OC2(CC(C3CCCc4ccccc43)Oc3ccc(-c4cc(F)cc(C(F)(F)F)c4)cc32)N=C1N (centres unmarked) [Compound 269] fall in the same range of pIC50: 5.00 to 5.30 for the first, 5.00 to 5.30 for the second.

First: CN1C(=O)C2(C[C@H](C3CCOC(C)(C)C3)Oc3ccc(-c4ccc(F)c(F)c4)cc32)N=C1N (some centres unmarked) [Compound 254]
Second: CN1C(=O)[C@@]2(C[C@@H](C3CCOC(C)(C)C3)Oc3ccc(-c4ccc(F)c(Cl)c4)cc32)N=C1N (some centres unmarked) [Compound 187]
The pIC50 of the first is lower: 6.30 to 7.00 for the first, 7.00 to 9.00 for the second.

First: CN1C(=O)[C@@]2(C[C@]3(CCCOC3)Oc3ccc(-c4cccc(Cl)c4)cc32)N=C1N [Compound 224]
Second: CN1C(=O)[C@@]2(C[C@@]3(CCCOC3)Oc3ccc(-c4cc(F)cc(Cl)c4)cc32)N=C1N [Compound 270]
The pIC50 of the first is higher: 6.30 to 7.00 for the first, 6.00 to 6.30 for the second.

First: COc1cc(Cl)cc(-c2ccc3c(c2)[C@]2(C[C@]4(CCCOC4)O3)N=C(N)N(C)C2=O)c1 [Compound 214]
Second: COc1cc(Cl)cc(-c2ccc3c(c2)[C@]2(C[C@@]4(CCCOC4)O3)N=C(N)N(C)C2=O)c1 [Compound 256]
The pIC50 of the first is higher: 7.00 to 9.00 for the first, 6.30 to 7.00 for the second. The first is the more potent here.

CN1O[C@]2(C[C@H](C3CCOC(C)(C)C3)Oc3ccc(-c4cccc(C#N)c4)cc32)N=C1N (some centres unmarked) [Compound 258] and CN1O[C@]2(C[C@H]([C@@H]3CCOC(C)(C)C3)Oc3ccc(-c4cccc(C#N)c4)cc32)N=C1N [Compound 211] fall in the same range of pIC50: 6.30 to 7.00 for the first, 6.30 to 7.00 for the second.

First: CN1C(=O)C2(CC(C34CCC(CC3)OC4)Oc3ccc(-c4cccc(C#N)c4)cc32)N=C1N (centres unmarked) [Compound 206]
Second: CN1C(=O)C2(CC(C3CCOC(C)(C)C3)Oc3ccc(-c4ccc(F)c(C#N)c4)cc32)N=C1N (centres unmarked) [Compound 182]
The pIC50 of the first is lower: 6.30 to 7.00 for the first, 7.00 to 9.00 for the second.

Compared with CN1C(=O)[C@@]2(C[C@@]3(CCCOC3)Oc3ccc(-c4cc(Cl)cc(C#N)c4)cc32)N=C1N [Compound 263], CN1C(=O)[C@@]2(C[C@]3(CCCOC3)Oc3ccc(-c4cc(Cl)cc(C#N)c4)cc32)N=C1N [Compound 203] is higher in pIC50: 6.30 to 7.00 for the first, 7.00 to 9.00 for the second. The second is the more potent here.

Compared with CN1OC2(CC3(CCCc4ccccc4C3)Oc3ccc(C#CC4CC4)cc32)N=C1N (centres unmarked) [Compound 238], CN1OC2(CC3(CCCc4ccccc4C3)Oc3ccc(-c4cc(Cl)cc(C#N)c4)cc32)N=C1N (centres unmarked) [Compound 191] is higher in pIC50: 5.30 to 6.00 for the first, 6.30 to 7.00 for the second.

In the case of CN1C(=O)C2(CC(C3CCCOC3)Oc3ccc(-c4cc(F)cc(F)c4)cc32)N=C1N (centres unmarked) [Compound 267], the pIC50 was 6.30 to 7.00.

target: T1, truncated human beta-secretase (residues 1-458, His6-tagged at the C-terminus) (Homo sapiens, UniProt P56817); experiment: BACE fluorescence quench assay; format: biochemical; details: not given
T1 construct: truncated human beta-secretase (residues 1-458, His6-tagged at the C-terminus); His6 (C); made in house; host or cells: insect cells D. melanogaster S2 (baculovirus expression system (so in the source))
T1 sequence (P56817 22-458): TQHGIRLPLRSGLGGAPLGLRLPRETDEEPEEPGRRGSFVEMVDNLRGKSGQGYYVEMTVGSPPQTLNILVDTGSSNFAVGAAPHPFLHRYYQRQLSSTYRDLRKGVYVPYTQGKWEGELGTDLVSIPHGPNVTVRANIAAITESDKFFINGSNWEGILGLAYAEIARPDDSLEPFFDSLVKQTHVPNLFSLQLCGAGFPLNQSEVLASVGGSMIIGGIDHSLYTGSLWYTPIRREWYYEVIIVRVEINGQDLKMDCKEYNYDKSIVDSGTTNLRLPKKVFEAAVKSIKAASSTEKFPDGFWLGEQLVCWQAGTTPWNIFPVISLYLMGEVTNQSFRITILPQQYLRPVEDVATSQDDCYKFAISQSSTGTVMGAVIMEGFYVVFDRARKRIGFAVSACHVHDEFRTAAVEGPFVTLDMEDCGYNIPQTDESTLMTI

Compared with CN1C(=O)C2(CC(c3ccccc3)Oc3ccc(-c4cccc(CC#N)c4)cc32)N=C1N (centres unmarked) [Compound 29, 2-(3-(2′-amino-1′-methyl-5′-oxo-2-phenyl-1′,5′-dihydrospiro[chroman-4,4′-imidazole]-6-yl)phenyl)acetonitrile], CC(=O)NCc1cccc(-c2ccc3c(c2)C2(CC(c4ccccc4)O3)N=C(N)N(C)C2=O)c1 (centres unmarked) [Compound 43, N-(3-(2′-amino-1′-methyl-5′-oxo-2-phenyl-1′,5′-dihydrospiro[chroman-4,4′-imidazole]-6-yl)benzyl)acetamide] is lower in pIC50: 5.30 to 6.00 for the first, 5.00 to 5.30 for the second.

CN(C)C(=O)c1cccc(-c2ccc3c(c2)C2(CC(c4ccccc4)O3)N=C(N)N(C)C2=O)c1 (centres unmarked) [Compound 39, 3-(2′-amino-1′-methyl-5′-oxo-2-phenyl-1′,5′-dihydrospiro[chroman-4,4′-imidazole]-6-yl)-N,N-dimethylbenzamide] and CN1C(=O)C2(CC(c3ccccc3)Oc3ccc(-c4cccc(OC(F)(F)F)c4)cc32)N=C1N (centres unmarked) [Compound 24, 2′-amino-1′-methyl-2-phenyl-6-(3-(trifluoromethoxy)phenyl)spiro[chroman-4,4′-imidazol]-5′(1′H)-one] fall in the same range of pIC50: 5.30 to 6.00 for the first, 5.30 to 6.00 for the second.

same assay, conditions: in vitro enzyme activity, BACE fluorescence assay, pH 4.5; read-out: IC50

CC(C)=CC(CCO)[C@@H]1C[C@@]2(N=C(N)N(C)O2)c2cc(-c3cc(F)cc(F)c3F)ccc2O1 (some centres unmarked) [Compound 392] and CC(C)=CC(CCO)C1CC2(N=C(N)N(C)O2)c2cc(-c3cccc(Cl)c3)ccc2O1 (centres unmarked) [Compound 412] fall in the same range of pIC50: 5.30 to 6.00 for the first, 5.30 to 6.00 for the second.

CC(C)C1CCC2(C1)CC1(N=C(N)N(C)O1)c1cc(-c3cccc(C#N)c3)ccc1O2 (centres unmarked) [Compound 121] and CN1OC2(CCOc3ccc(-c4cccc(C#N)c4)cc32)N=C1N (centres unmarked) [Compound 97, 3-(3′-Amino-2′-methyl-2′H-spiro[chroman-4,5′-[1,2,4]oxadiazole]-6-yl)benzonitrile] fall in the same range of pIC50: 5.30 to 6.00 for the first, 5.30 to 6.00 for the second.

CN1C(=O)C2(CC(c3cccc(Cl)c3)Oc3ccc(-c4cccc(C#N)c4)cc32)N=C1N (centres unmarked) [Compound 20, 3-(2′-amino-2-(3-chlorophenyl)-1′-methyl-5′-oxo-1′,5′-dihydrospiro[chroman-4,4′-imidazole]-6-yl)benzonitrile] and CN1O[C@]2(C[C@@H](C[C@H]3CCCO3)Oc3ccc(-c4cccc(C#N)c4)cc32)N=C1N (stereo in doubt) [Compound 360, 3-(3′-amino-2′-methyl-2-((tetrahydrofuran-2-yl)methyl)-2′H-spiro[chroman-4,5′-[1,2,4]oxadiazole]-6-yl)benzonitrile] fall in the same range of pIC50: 6.00 to 6.30 for the first, 6.00 to 6.30 for the second.

CN1OC2(CC3(CCC(OCc4ccccc4)CC3)Oc3ccc(-c4cccc(C#N)c4)cc32)N=C1N (centres unmarked) [Compound 375] and CC(C)=CC(CCO)C1CC2(N=C(N)N(C)O2)c2cc(-c3cccc(C#N)c3)ccc2O1 (centres unmarked) [Compound 382] fall in the same range of pIC50: 5.30 to 6.00 for the first, 5.30 to 6.00 for the second.

Cc1cc(C)cc(-c2ccc3c(c2)[C@]2(C[C@@]4(CCCOC4)O3)N=C(N)N(C)C2=O)c1 [Compound 340] and CN1C(=O)[C@@]2(C[C@@]3(CCCOC3)Oc3ccc(-c4cc(Cl)cc(Cl)c4)cc32)N=C1N [Compound 281] fall in the same range of pIC50: 6.30 to 7.00 for the first, 6.30 to 7.00 for the second.

First: CN1OC2(CC(C3CCCOC3)Oc3ccc(-c4cncnc4)cc32)N=C1N (centres unmarked) [Compound 98]
Second: CN1OC2(CC(C3CCOC(C)(C)C3)Oc3ccc(-c4ccc5cn[nH]c5c4)cc32)N=C1N (centres unmarked) [Compound 361]
The pIC50 of the first is lower: 5.30 to 6.00 for the first, 6.00 to 6.30 for the second. The second is the more potent here.

First: CN1C(=O)[C@@]2(C[C@]3(CCCOC3)Oc3ccc(-c4cc(CO)ccc4F)cc32)N=C1N [Compound 376]
Second: CN1C(=O)[C@@]2(C[C@@]3(CCCOC3)Oc3ccc(-c4cc(CO)ccc4F)cc32)N=C1N [Compound 435]
The pIC50 of the first is higher: 5.30 to 6.00 for the first, 5.00 to 5.30 for the second. The first is the more potent here.

First: CN1C(=O)C2(CC3(CCCOC3)Oc3ccc(-c4cccc(-n5ccnc5)n4)cc32)N=C1N (centres unmarked) [Compound 439]
Second: CN1C(=O)[C@@]2(C[C@@]3(CCCOC3)Oc3ccc(-c4ccc(F)c(Cl)c4)cc32)N=C1N [Compound 310]
The pIC50 of the first is lower: 5.00 to 5.30 for the first, 6.30 to 7.00 for the second.

First: Cc1ccc(C#N)cc1-c1ccc2c(c1)C1(CC3(CCCOC3)O2)N=C(N)N(C)C1=O (centres unmarked) [Compound 368]
Second: CN1C(=O)C2(CC3(CCCCC3)Oc3ccc(-c4cccnc4)cc32)N=C1N (centres unmarked) [Compound 80]
The pIC50 of the first is higher: 6.00 to 6.30 for the first, 5.30 to 6.00 for the second. The first is the more potent here.

CN1OC2(C[C@H]([C@H]3CCOC(C)(C)C3)Oc3ccc(-c4cccc(C#N)c4F)cc32)N=C1N (some centres unmarked) [Compound 312] showed a pIC50 of 6.30 to 7.00.
